In general, inhibition refers to the relative decrease from the control value, in per cent.

Test [1] has as its target T1, MMP9 mediated gelatinase activity (Rattus norvegicus, UniProt P50282).
T1 construct: from tissue; host or cells: liver cryosections of female Lewis rats
Nature of the test: Liver in situ zymography of SCW-induced rats dosed with compound. In kind it is in vivo. The conditions noted are these: for Intensity (RLU × 10^6) Rat 1 / Intensity (RLU × 10^6) Rat 2 / Intensity (RLU × 10^6) Rat 3 / Intensity (RLU × 10^6) Mean: Day 25-28, liver; for Intensity (RLU × 10^6) Mean: n=3. An excerpt:
In situ zymography provides an alternative approach to assess active MMP9 in tissues (Frederiks). Tissue sections are overlain with fluorescene-conjugated gelatin wherein the conjugation is sufficiently dense to cause the fluorescene to be dye-quenched (DQ). Proteolytic degradation of the DQ-gelatin releases the fluorescene from the quenching effect giving rise to bright green fluorescence at the site of degradation. Because in situ zymography requires the use of frozen sections, calcified tissues are problematic. However, an additional feature of the SCW arthritis model is the development of hepatic granulomatous disease (J Immunol; 1986; 137:2199-2209), and MMP9 reportedly plays a role in macrophage recruitment in the granulomas response to mycobacteria (Infect Immun; 2006; 74:6135-6144). Consequently, granulomatous livers from SCW-treated rats were assessed for active MMP9 by in situ zymography.
As described above, Female Lewis (LEW/N) rats, 5-6 weeks of age (80-100 g) were injected (i.p.) with saline or SCW PG-PS. On day 28, when the granulomatous response was well established, animals were sacrificed and livers were frozen in OCT cryo-sectioning medium and 10 μm sections were cut on a Cryome HM 500 M cryotome and mounted on glass microscope slides. Sections were air dried briefly. MMP9 was confirmed as the source of the gelatinase activity in the liver by treating liver sections with monoclonal antibodies directed against the active site of the two major gelatinases MMP9 and MMP2. Liver sections overlain with 50 μL of 100 μg/mL neutralizing mouse monoclonal antibodies directed against MMP9 (Calbiochem, clone 6-6B), or MMP2 (Millipore, clone CA-4001), or with PBS for 1 hr at room temperature. Tissues were rinsed once with PBS, blotted, and briefly air dried and then overlain with DQ-gelatin (Invitrogen) dissolved to 1 mg/mL in deionized water and then diluted 1:10 in 1% wt/vol low gelling point agarose type VII (Sigma) in PBS. The sections were covered with coverslips, incubated in the dark at room temperature for 20 min, and imaged on an Olympus IX80 inverted microscope fitted with fluorescence optics, using SlideBook™ imaging software (Intelligent Imaging Innovations, Inc., Philadelphia, Pa.; version 5.0). Fluorescence intensity was determined (Table 8). When compared to a saline-treated rat, gelatinase activity was abundantly expressed in granulomatous liver sections obtained from a rat with SCW arthritis.
Next, liver in situ zymography was used to assess the relative presence of active MMP9 in rats dosed with vehicle vs. Example 64. Female Lewis (LEW/N) rats, 5-6 weeks of age (80-100 g) were injected (i.p.) with saline or SCW PG-PS. Commencing on day 25, randomized groups of rats (n=3 rats/group) received vehicle or 20 or 50 mg/kg Example 64 BID by oral gavage. Vehicle consisted of an aqueous mixture containing 2% (v:v) N-methylpyrrolidone, 5% (v:v) glycerine, and 20% (w:v) captisol. Treatment continued daily through the morning of day 28. Four hrs after the AM dose on day 28, rats were sacrificed and livers assessed for active MMP9 by in situ zymography (Table 9). Gelatinase activity was increased markedly in SCW-induced rats, but activity was reduced by approximately 80% in animals treated with 50 mg/kg Example 64.

The target in the next test is T2, proMMP9 (Homo sapiens, UniProt P14780).
T2 construct: host or cells: HFL-1 human fetal lung fibroblasts, TNFα plus human neutrophil elastase
T2 sequence (P14780 20-707 limits assumed): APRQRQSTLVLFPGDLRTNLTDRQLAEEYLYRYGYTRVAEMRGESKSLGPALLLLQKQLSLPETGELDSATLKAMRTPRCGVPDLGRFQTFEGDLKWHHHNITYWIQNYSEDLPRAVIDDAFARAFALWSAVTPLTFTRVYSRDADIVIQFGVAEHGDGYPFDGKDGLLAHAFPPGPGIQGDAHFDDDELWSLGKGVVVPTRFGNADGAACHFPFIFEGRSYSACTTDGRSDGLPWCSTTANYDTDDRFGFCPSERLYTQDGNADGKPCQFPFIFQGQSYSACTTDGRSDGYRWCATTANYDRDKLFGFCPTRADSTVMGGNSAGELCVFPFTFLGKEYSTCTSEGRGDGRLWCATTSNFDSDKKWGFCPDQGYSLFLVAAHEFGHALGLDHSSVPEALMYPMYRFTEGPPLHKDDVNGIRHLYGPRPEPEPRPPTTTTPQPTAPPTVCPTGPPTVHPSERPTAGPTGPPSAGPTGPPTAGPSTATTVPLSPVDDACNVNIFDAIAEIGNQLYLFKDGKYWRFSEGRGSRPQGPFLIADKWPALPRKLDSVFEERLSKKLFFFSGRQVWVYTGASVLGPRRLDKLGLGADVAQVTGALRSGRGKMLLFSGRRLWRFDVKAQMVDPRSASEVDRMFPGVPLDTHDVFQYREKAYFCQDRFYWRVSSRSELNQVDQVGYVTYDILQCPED
Nature of the test: Activation of proMMP9 by human fetal lung fibroblast (HFL-1) cultures (Western blot). In kind it is cell-based. As for the experimental part: Activation of proMMP9 by Human Fetal Lung Fibroblast Cultures Example 64 was assessed additionally for ability to block the maturation of proMMP9 to active MMP9 in cultures of human fetal lung fibroblasts (HFL-1, American Type Culture Collection #CCL-153). Unlike rat synoviocytes, HFL-1 cells were unable to process proMMP9 to the active form without addition of neutrophil elastase. […] Rather, the function of elastase in this assay may be to inactivate tissue inhibitors of matrix metalloproteinases (TIMPs) that repress endogenous pathways of MMP9 activation (Am J Respir Grit Care Med; 1999; 159:1138-46).
HLF-1 were maintained in monolayer culture in DMEM with 10% FCS and were used between passage numbers 5-15. HLF-1 were embedded in collagen gels as described for rat SCW synoviocytes (vida supra). Half mL gels containing 0.4 million cells were dislodged into wells of 12 well Costar plates containing 1 mL/well of DMEM adjusted to contain 0.05% BSA and 100 ng/mL human TNFα (R&D Systems Cat #210-TA/CF). After overnight culture (37° C. and 5% CO2) wells were adjusted to contain an additional 0.5 mL of DMEM containing 0.05% BSA and with or without 13.2 μM Example 64 (final concentration was 3.3 μM Example 64). Next, cultures were adjusted to contain 30 nM human elastase (Innovative Research). The plates were cultured an additional 72 hrs, at which time MMP9 secreted into the conditioned media was bound to gelatin-sepharose and evaluated by Western blot analysis as described for the rat synoviocyte cultures (vida supra). mAb-51/82 detected three forms of MMP9 in HFL-1 cultures.
A second experiment was performed to determine if the 80 kD form was mature active MMP9 and to determine the potency of Example 64 as an inhibitor of MMP9 maturation in this assay. HFL-1 cells embedded in collagen gels were cultured as described above in the presence of TNFα overnight and the cultures were then adjusted to contain 30 nM elastase and graded concentrations of Example 64 for an additional 72 hrs at which time MMP9 secreted into the conditioned media was bound to gelatin-sepharose and evaluated by Western blot analysis for active MMP9 using pAb-1246 raised against the N-terminal neoepitope of active MMP9 (Table 5). In the absence of Example 64, pAb-1246 readily detected MMP9 with an electrophoretic mobility of approximately 80 kD. […] Inhibition occurred over a dose range with an IC50 of approximately 0.3 μM Example 64.
(A western blot detects proteins with antibodies after separation by electrophoresis.)

T1 sequence (P50282 108-708): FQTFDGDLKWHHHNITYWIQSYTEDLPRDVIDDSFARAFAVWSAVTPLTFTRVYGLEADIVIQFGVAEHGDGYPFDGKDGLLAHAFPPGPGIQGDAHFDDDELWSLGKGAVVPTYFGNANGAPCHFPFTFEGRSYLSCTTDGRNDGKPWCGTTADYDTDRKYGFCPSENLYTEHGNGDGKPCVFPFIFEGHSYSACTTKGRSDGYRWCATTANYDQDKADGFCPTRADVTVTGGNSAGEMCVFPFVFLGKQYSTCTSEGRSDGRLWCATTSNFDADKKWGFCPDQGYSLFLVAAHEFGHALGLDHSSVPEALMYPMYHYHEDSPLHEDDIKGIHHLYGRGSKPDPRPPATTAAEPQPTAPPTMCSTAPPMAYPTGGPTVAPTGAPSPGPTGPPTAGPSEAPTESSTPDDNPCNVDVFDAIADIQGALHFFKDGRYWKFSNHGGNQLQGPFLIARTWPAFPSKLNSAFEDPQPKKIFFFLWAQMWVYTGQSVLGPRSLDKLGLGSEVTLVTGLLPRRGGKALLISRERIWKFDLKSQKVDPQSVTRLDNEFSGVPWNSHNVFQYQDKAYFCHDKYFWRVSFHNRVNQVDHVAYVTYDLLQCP

Take `Cc1nc(C)c(-c2csc(Nc3cc(S(N)(=O)=O)ccc3OC(C)C)n2)s1` [Example 64, 3-(2′,4′-Dimethyl-[4,5′]bithiazolyl-2-ylamino)-4-isopropoxy-benzenesulfonamide.HBr]: in test [1] (20 mg/kg BID oral), the “Intensity (RLU × 10^6) Rat 1” value was 43.0 RLU × 10^6, the “Intensity (RLU × 10^6) Rat 2” value was found to be 69.0 RLU × 10^6, the “Intensity (RLU × 10^6) Rat 3” value was found to be 53.7 RLU × 10^6 and the “Intensity (RLU × 10^6) Mean” value is reported as 55.2 RLU × 10^6. In addition, the “reduction of gelatinase activity in liver” value in test [1] (50 mg/kg BID oral, Day 25-28) is given as “approximately 80%”. Moreover, in test [1] (50 mg/kg BID oral), the “Intensity (RLU × 10^6) Rat 1” value is 3.2 RLU × 10^6, the “Intensity (RLU × 10^6) Rat 2” value worked out at 25.6 RLU × 10^6, the “Intensity (RLU × 10^6) Rat 3” value came to 4.5 RLU × 10^6 and the “Intensity (RLU × 10^6) Mean” value was 11.1 RLU × 10^6. The “Signal (INT*mm^2) Total” value on proMMP9 (3.3 μM, HFL-1, mAb-L51/82, 30 nM elastase, 72 hrs) stood at 91346 INT*mm^2. This compound registered an inhibition at 0.12 µM at proMMP9 (HFL1, 0.12 μM, HFL-1, 80 kD band, pAb-1246) of 0%. Further, the inhibition at 0.37 µM at proMMP9 (HFL1, 0.37 μM, HFL-1, 80 kD band, pAb-1246) stood at 73%. Moreover, at proMMP9 (HFL1, 1.1 μM, HFL-1, 80 kD band, pAb-1246), the inhibition at 1.1 µM is 99%. On proMMP9 (HFL1, 3.3 μM, HFL-1, 80 kD band, pAb-1246), testing at 3.3 µM gave an inhibition of 100%. At proMMP9 (HFL1, 10 μM, HFL-1, 80 kD band, pAb-1246), the inhibition at 10 µM is 100%.

For the origin of these results see patent US20120129842A1, “BISTHIAZOLE INHIBITORS OF PRO-MATRIX METALLOPROTEINASE ACTIVATION” (priority 2010, published 2012).
